Assay results from EP0870197B2, “USE OF NUCLEAR MAGNETIC RESONANCE TO DESIGN LIGANDS TO TARGET BIOMOLECULES” (priority 1995, dated 1997).
Where two headings read alike, the source gives them in different places. Each block holds one compound with its values, some of them ahead of it.

Tests used:
[1] = target: T1, DNA-binding domain of the E2 protein (Human papillomavirus 31, UniProt P17383); experiment: two-dimensional 15N/1H NMR correlation titration, binding constants for two binding sites
T1 construct: made in house; host or cells: bacteria, T7 expression system
Procedure: Compounds from the database were screened in a similar manner for binding to the DNA-binding domain of the E2 protein. Those compounds had the structure II below, where R1-R4 and A are defined in Table 2. [drawing 5]
NMR experiments were performed at 29°C on a Bruker AMX500 NMR spectrometer equipped with a triple resonance probe and Bruker sample changer. The ^15N-/^1H HSQC spectra were acquired as 80 x 1024 complex points using sweep widths of 2000 Hz (^15N,t1) and 8333 Hz (^1H, t2). A delay of 1 second between scans and 4 scans per free induction decay were employed in the data collection. All NMR spectra were processed and analyzed on Silicon Graphics computers.
By monitoring the chemical shift changes as a function of ligand concentration, binding constants for the two binding sites were also measured. Table 2 […]

FKBP = FKBP (Homo sapiens, UniProt P62942); experiment: two-dimensional 15N/1H NMR correlation titration, dissociation constant; type: binding; parameters: made in house; host or cells: recombinant
Procedure: The second step in the design process was the identification of a second ligand that bound to the target FKBP at a site different from the binding site of compound 29. This was accomplished by screening compounds for their ability to bind to FKBP in the presence of saturating amounts of the ascomycin fragment analog (compound 29). Details of procedures for this second identification step are as set forth in example 2.
In the second round of screening, binding was assayed both in the presence and in the absence of saturating amount of compound 29 (1 mM).
Various benzanilide compounds were tested for binding to FKBP at multiple ligand concentrations. The ^15N/^1H correlation spectra generated at each concentration were evaluated to quantify differences in the spectra as a function of compound concentration. A binding or dissociation constant (Kd) was calculated, using standard procedures well known in the art, from those differences. The values for R1-R4 in Table 5 refer to the corresponding positions in the structure III, above.

[2] = target: T2, catalytic domain of stromelysin (Homo sapiens, UniProt P08254); experiment: as above; type: binding
T2 construct: expression construct coding for amino acid residues 81-256 plus an initiating methionine; initiating methionine (N); made in house; host or cells: E. coli BL21(DE3)/pLysS, pET3d
Procedure: Binding or dissociation constants are measured by following the ^15N/^1H chemical shifts of the protein as a function of ligand concentration. A known concentration ([P]o) of the target molecule is mixed with a known concentration ([L]0) of a previously identified ligand and the two-dimensional ^15N/^1H correlation spectrum was acquired. From this spectrum, observed chemical shift values (δobs) are obtained. The process is repeated for varying concentrations of the ligand to the point of saturation of the target molecule, when possible, in which case the limiting chemical shift value for saturation (δsat) is measured.
In those situations where saturation of the target molecule is achieved, the dissociation constant for the binding of a particular ligand to the target molecule is calculated using the formula: KD = (([P]0−x)([L]0−x))/(x) [formula] where [P]0 is the total molar concentration of target molecule; [L]0 is the total molar concentration of ligand; and x is the molar concentration of the bound species. The value of x is determined from the equation: x = (δobs −δfree)/(Δ) [formula] where δfree is the chemical shift of the free species; δobs is the observed chemical shift; and Δ is the difference between the limiting chemical shift value for saturation (δsat) and the chemical shift value of the target molecule free of ligand (δfree).
The dissociation constant is then determined by varying its value until a best fitto the observed data is obtained using standard curve-fitting statistical methods. In the case where δsat is not directly known, both KD and δsat are varied and subjected to the same curve-fitting procedure.
The catalytic domain of stromelysin was prepared in accordance with the procedures of Example 1. The protein solutions used in the screening assay contained the uniformly ^15N-labeled catalytic domain of stromelysin (0.3 mM), acetohydroxamic acid (500 mM), CaCl2 (20 mM), and sodium azide (0.5%) in a H2O/D2O (9/1) TRIS buffered solution (50 mM, pH=7.0).
Two-dimensional ^15N/^1H NMR spectra were generated at 29°C on a Bruker AMX500 NMR spectrometer equipped with a triple resonance probe and Bruker sample changer. The ^15N/^1H HSQC spectra were acquired as 80 x 1024 complex points using sweep widths of 2000 Hz (^15N, t^1) and 8333 Hz (^1H, t2). A delay of 1 second between scans and 8 scans perfree induction decay(fid) were employed in the data collection. All NMR spectra were processed and analyzed on Silicon Graphics computers using in-house-written software.
A first two-dimensional ^15N/^1 H NMR correlation spectrum was acquired for the ^15N-labeled stromelysin target molecule as described above. The stromelysin target was then exposed to a database of test compounds. Stock solutions of the compounds were made at 100 mM and 1 M. In addition, a combination library was prepared that contained 8-10 compounds per sample at a concentration of 100 mM for each compound.
The NMR samples were prepared by adding 4 µl of the DMSO stock solution of the compound mixtures that contained each compound at a concentration of 100 mM to 0.4 ml H2O/D2O (9/1) buffered solution of the uniformly ^15N-labeled protein. The final concentration of each of the compounds in the NMR sample was about 1 mM.
Various biaryl compounds of structure I were tested for binding to stromelysin at differing concentrations. The ^15N/^1H spectra generated at each concentration were evaluated to quantify differences in the spectra as a function of compound concentration. A binding or dissociation constant (KD)was calculated, using standard procedures well known in the art, from those differences. The values for R1-R3 and A1-A3 in Table 1 refer to the corresponding positions in the structure I, above.
All NMR measurements were performed in the presence of 500 mM acetohydroxamic acid, except for the titration of acetohydroxamic acid itself. Dissociation constants were obtained from the dependence of the observed chemical shift changes upon added ligand. […]

Stromelysin [3] = target: T3, Stromelysin (Homo sapiens, UniProt P08254); experiment: stromelysin inhibition by linked hydroxamate-biaryl compounds; type: biochemical
T3 construct: expression construct coding for amino acid residues 81-256 plus an initiating methionine; initiating methionine (N); made in house; host or cells: E. coli BL21(DE3)/pLysS, pET3d

[4] = target: T2, catalytic domain of stromelysin; experiment: enzymatic assay, cleavage of a fluorogenic substrate; type: biochemical
Procedure: In a first study, binding constants were determined, both by the NMR method of the present invention, and by a prior art enzymatic assay. The target molecule was the catalytic domain of stromelysin prepared in accordance with the procedures of Example 1. […] The KD values so obtained were compared to an inhibition constant KI as determined in an enzymatic assay.
The enzymatic assay measured the rate of cleavage of a fluorogenic substrate by following the fluorescence increase upon peptide cleavage which causes a separation between the fluorophore and quencher. Enzymatic activity was measured using a matrix of different concentrations of acetohydroxamic acid and biaryl compounds. The assay is a modification of the method described by H. Weingarten, et al. in Anal. Biochem., 147: 437-440 (1985) employing the fluorogenic substrate properties described by E. Matayoshi, et al. in Science: 247: 954-958 (1990).
Eight acetohydroxamic acid concentrations were used ranging from 0.0 to 1.0 M, and six compound concentrations were used, resulting in a total of 48 points. Individual compound concentration varied due to solubility and potency.
All NMR measurements were performed in the presence of 500 mM acetohydroxamic acid, except for the titration of acetohydroxamic acid itself. Dissociation constants were obtained from the dependence of the observed chemical shift changes upon added ligand. Inhibition constants were then obtained from the inhibition data using standard procedures.

water solubility = type: physicochemical
Stromelysin [5] = target: T3, Stromelysin; experiment: inhibition of stromelysin degradation (autolysis); type: biochemical; conditions: at a concentration of 500 mM
Procedure: Studies were performed to design new ligands that bound to the catalytic domain of stromelysin. Because stromelysin undergoes autolysis, an inhibitor was sought to block the degradation of stromelysin. That inhibitor would facilitate the screening of other potential ligands that bind to other sites on the enzyme.
A variety of hydroxamic acids of the general formula R-(CO)NHOH were screened for binding to stromelysin using the procedures set forth in Example 2.

[6] = amides of the DNA-binding site, read-out: DNA KD
[7] = amides of the β-barrel site, read-out: β-barrel KD
[8] = Table 1, biaryl compounds of structure I, differing concentrations, read-out: KD
[9] = Table 3, in the presence of 500 mM acetohydroxamic acid, read-out: NMR KD
[10] = fluorogenic substrate, matrix of acetohydroxamic acid and compound concentrations, read-out: Assay KI

T3 sequence (P08254 98-273): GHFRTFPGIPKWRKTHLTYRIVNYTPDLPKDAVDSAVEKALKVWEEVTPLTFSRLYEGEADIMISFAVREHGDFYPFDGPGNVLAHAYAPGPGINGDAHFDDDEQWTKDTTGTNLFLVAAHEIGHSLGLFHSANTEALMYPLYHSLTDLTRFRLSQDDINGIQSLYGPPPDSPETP
T2 sequence (P08254 98-273): as above
Chain of FKBP (P62942 whole entry, the tested form may be a part): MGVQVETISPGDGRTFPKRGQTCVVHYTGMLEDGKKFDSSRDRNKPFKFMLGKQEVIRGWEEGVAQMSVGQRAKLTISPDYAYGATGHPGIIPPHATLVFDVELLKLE
T1 sequence (P17383 292-372): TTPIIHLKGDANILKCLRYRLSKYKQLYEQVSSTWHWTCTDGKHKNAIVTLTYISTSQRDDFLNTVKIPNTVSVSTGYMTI

SMILES: O=C(O)CCC(=O)c1ccc(Oc2ccccc2)cc1 [Compound 20]
Kd [1, 6]: 2.7 mM
Kd [1, 7]: 4.8 mM

Kd (FKBP): 0.8 mM
SMILES: O=C(Nc1ccc(O)cc1)c1ccccc1O [Compound 30]

SMILES: OCc1cccc(Oc2ccccc2)c1 [Compound 14]
Kd [1, 6]: > 50 mM
Kd [1, 7]: 2 mM

SMILES: O=Cc1ccc(-c2ccccc2)cc1 [Compound 5]
Kd [2]: 1.7 mM

inhibition at 100 µM (Stromelysin [3]; @ 100 µM): 38%
SMILES: O=C(CCCCOc1ccc(-c2ccccc2)cc1)NO [Compound 23]

SMILES: O=C(Nc1ccccc1)c1ccccc1O [Compound 37]
Kd (FKBP): > 5 mM

Kd [2, 8]: 0.3 mM
SMILES: CC(=O)Oc1ccc(-c2ccccc2)cc1 [Compound 8]

SMILES: c1cc(-c2ccncc2)ccn1 [Compound 10]
Kd [2]: 0.4 mM
Kd ([2]; read-out: NMR KD, Table 3, in the presence of 500 mM acetohydroxamic acid): 0.4 mM
Ki [4]: 1.8 mM

SMILES: Oc1ccc(-c2ccccc2)cc1 [Compound 11]
Kd [2]: 0.3 mM

Kd [2, 8]: 0.01 mM
Kd [2, 9]: 0.16 mM
Ki [4, 10]: 0.7 mM
SMILES: Oc1ccc(-c2ccc(O)cc2)cc1 [Compound 9]

Kd (FKBP): > 5 mM
SMILES: O=C(Nc1ccccc1)c1ccccc1 [Compound 36]

Kd [2, 8]: 1.6 mM
Kd [2, 9]: 1.6 mM
Ki [4, 10]: 7.4 mM
SMILES: c1ccc(-c2ccncn2)cc1 [Compound 4]

SMILES: O=C(O)Cc1ccc(-c2ccccc2)cc1 [Compound 17]
Kd [1, 6]: 4.2 mM
Kd [1, 7]: 4.9 mM

Kd [2, 8]: 0.01 mM
Kd [2, 9]: 0.02 mM
Ki [4, 10]: 0.11 mM
SMILES: N#Cc1ccc(-c2ccc(O)cc2)cc1 [Compound 12]

IC50 (Stromelysin [3]; Table 4, kind of constant not given): 0.11 mM
SMILES: O=C(CCCOc1ccc(-c2ccccc2)cc1)NO [Compound 22]

SMILES: CC(=O)NO [Acetohydroxamic acid, acetohydroxamic acid, reference compound]
Kd ([2]; NMR screening of hydroxamic acids, read-out: binding affinity for stromelysin): 17 mM
Kd ([2]; Table 3, titration of acetohydroxamic acid itself, read-out: NMR KD): 17 mM
Ki [4]: 21.1 mM
water solubility (water solubility): good water solubility
degradation of the enzyme (Stromelysin [5]): inhibited the degradation of the enzyme

SMILES: O=C(O)c1ccc(-c2ccccc2)cc1 [Compound 15]
Kd [1, 6]: 2 mM
Kd [1, 7]: > 50 mM

SMILES: CC(CCc1ccc(Oc2ccccc2)cc1)CC(=O)O (stereo not drawn) [Compound 19]
Kd [1, 6]: 0.5 mM
Kd [1, 7]: 0.2 mM

Kd [2, 8]: 0.4 mM
SMILES: COc1ccc(-c2ccccc2)cc1N [Compound 6]
